Measurements published in ChEMBL document CHEMBL6127081, “Peptide inhibitors targeting Ras and Ras-associated protein-protein interactions” (Eur J Med Chem, 2024).
Where a SMILES comes first, the peptide text is derived from it. Bridges are numbered along the chain shown (N, C = ends). [ ]: non-standard residue; d: D form. The star is where a group is joined. hPhe(3,5-F2-4-CF3) = N[C@@H](CCc1cc(F)c(C(F)(F)F)c(F)c1)C(=O)O; hPhe(3-Cl-4-CF3) = N[C@@H](CCc1ccc(C(F)(F)F)c(Cl)c1)C(=O)O; hPhe(4-CF3) = N[C@@H](CCc1ccc(C(F)(F)F)cc1)C(=O)O; NEtPhe(4-Me) = CCN[C@@H](Cc1ccc(C)cc1)C(=O)O; NMePhe(4-Cl) = CN[C@@H](Cc1ccc(Cl)cc1)C(=O)O; Phe(3-Cl) = N[C@@H](Cc1cccc(Cl)c1)C(=O)O; NMeGly(cPent) = CN[C@H](C(=O)O)C1CCCC1; Phe(4-F) = N[C@@H](Cc1ccc(F)cc1)C(=O)O; 2Nal = N[C@@H](Cc1ccc2ccccc2c1)C(=O)O; NMeCha = CN[C@@H](CC1CCCCC1)C(=O)O; NMeF = CN[C@@H](Cc1ccccc1)C(=O)O; NMeD = CN[C@@H](CC(=O)O)C(=O)O; NMeL = CN[C@@H](CC(C)C)C(=O)O; NMeV = CN[C@H](C(=O)O)C(C)C; NMeA = CN[C@@H](C)C(=O)O; Nle = CCCC[C@H](N)C(=O)O; Pyrrolidide = C1CCN(*)C1; Ac5c = NC1(C(=O)O)CCCC1; Aze = O=C(O)[C@@H]1CCN1; β3hA = C[C@H](N)CC(=O)O; Sar = CNCC(=O)O

Target: GTPase KRas/RAF1 (Homo sapiens, UniProt P01116)
Assay: Inhibition of KRAS/RAF interaction (unknown origin) by HTRF assay
Format: protein assay

Chain of GTPase KRas/RAF1 (P04049 whole entry): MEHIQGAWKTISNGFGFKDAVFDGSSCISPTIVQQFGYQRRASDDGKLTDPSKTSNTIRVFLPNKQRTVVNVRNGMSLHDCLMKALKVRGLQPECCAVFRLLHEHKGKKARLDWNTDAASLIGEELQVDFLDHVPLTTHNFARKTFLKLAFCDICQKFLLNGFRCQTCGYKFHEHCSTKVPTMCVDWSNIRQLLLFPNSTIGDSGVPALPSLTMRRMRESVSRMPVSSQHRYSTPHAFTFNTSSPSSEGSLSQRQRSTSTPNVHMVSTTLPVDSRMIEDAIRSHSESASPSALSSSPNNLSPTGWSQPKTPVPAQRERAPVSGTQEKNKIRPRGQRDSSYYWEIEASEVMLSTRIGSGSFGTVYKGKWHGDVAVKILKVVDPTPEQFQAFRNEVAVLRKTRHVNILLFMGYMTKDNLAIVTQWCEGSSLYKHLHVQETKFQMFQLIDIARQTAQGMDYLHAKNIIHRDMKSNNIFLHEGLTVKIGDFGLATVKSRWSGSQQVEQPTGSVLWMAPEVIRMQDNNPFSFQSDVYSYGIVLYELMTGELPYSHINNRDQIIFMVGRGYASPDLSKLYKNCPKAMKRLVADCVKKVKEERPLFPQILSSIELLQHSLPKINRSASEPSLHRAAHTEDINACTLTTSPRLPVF
Chain of GTPase KRas/RAF1 (P01116 whole entry): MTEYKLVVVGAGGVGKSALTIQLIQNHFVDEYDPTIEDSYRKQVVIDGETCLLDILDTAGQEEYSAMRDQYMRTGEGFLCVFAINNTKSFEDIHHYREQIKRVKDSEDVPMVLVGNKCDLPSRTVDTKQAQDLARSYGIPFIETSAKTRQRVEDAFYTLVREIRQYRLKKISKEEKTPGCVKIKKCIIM

Compound	IC50 [µM]
CCCC[C@@H]1NC(=O)[C@H](Cc2ccc(F)cc2)NC(=O)[C@H](CCCNC(=N)N)NC(=O)[C@H](Cc2ccc3ccccc3c2)NC(=O)[C@H](CCCNC(=N)N)NC(=O)[C@H](CCCNC(=N)N)NC(=O)[C@H](CCC(N)=O)NC(=O)[C@H](C)NC(=O)[C@H]([C@@H](C)O)NC(=O)[C@H](Cc2c[nH]c3ccccc23)NC(=O)[C@H](CO)NC1=O (cyclo([2Nal]R[Phe(4-F)][Nle]SWTAQRR))	0.65
CCCC[C@@H]1NC(=O)[C@H](Cc2ccc(F)cc2)NC(=O)[C@H](CCCNC(=N)N)NC(=O)[C@H](Cc2ccc3ccccc3c2)NC(=O)[C@H](CCCNC(=N)N)NC(=O)[C@H](CCCNC(=N)N)NC(=O)[C@H](CCCNC(=N)N)NC(=O)[C@H](C)NC(=O)[C@H]([C@@H](C)O)NC(=O)[C@H](Cc2c[nH]c3ccccc23)NC(=O)[C@H](CCC(N)=O)NC1=O (cyclo([2Nal]R[Phe(4-F)][Nle]QWTARRR))	0.12

Target: SOS1-KRAS (Homo sapiens, UniProt P01116, G12D)
Assay: Inhibition of KRAS G12D mutant/SOS1 (unknown origin) interaction by TR-FRET assay
Format: protein-complex assay

Chain of SOS1-KRAS (P01116 whole entry G12D, looked up): as the sequence (P01116 whole entry) above, with G12D counted along it

Compound	IC50 [µM]
CC[C@H](C)[C@@H]1NC(=O)[C@H](CC(C)C)N(C)C(=O)C[C@H](C)NC(=O)[C@H](CC(C)C)N(C)C(=O)C2(CCCC2)NC(=O)[C@@H]2CCCN2C(=O)[C@H](CCc2ccc(C(F)(F)F)cc2)NC(=O)CN(C)C(=O)[C@H](CC2CCCCC2)N(C)C(=O)CN(C)C(=O)CN(C)C1=O (cyclo([Ac5c][NMeL][β3hA][NMeL]I[Sar][Sar][NMeCha][Sar][hPhe(4-CF3)]P))	0.11
CC[C@H](C)[C@@H]1NC(=O)[C@H](C)N(C)C(=O)C[C@@H](C(=O)N2CCCC2)NC(=O)[C@H](CC(C)C)N(C)C(=O)[C@H](Cc2ccccc2)N(C)C(=O)[C@H](CC(C)C)NC(=O)[C@H](CCc2ccc(C(F)(F)F)cc2)NC(=O)CN(C)C(=O)[C@H](Cc2ccc(Cl)cc2)N(C)C(=O)CN(C)C1=O ([NMeA]I[Sar][NMePhe(4-Cl)][Sar][hPhe(4-CF3)]L[NMeF][NMeL]D-Pyrrolidide; lactam N-10)	0.018
CC[C@H](C)[C@H](NC(=O)CNC(=O)[C@H](Cc1ccccc1)NC(=O)[C@H](Cc1ccccc1)NC(=O)[C@H](CCCNC(=N)N)NC(=O)[C@H](CCCNC(=N)N)NC(C)=O)C(=O)N[C@@]1(C)CCC/C=C\CCC[C@@](C)(C(=O)N[C@@H](CC(C)C)C(=O)N[C@@H](CCCCN)C(=O)N[C@H](C(=O)N[C@@H](CCC(=O)O)C(=O)N[C@@H](CCC(=O)O)C(=O)NCC(=O)N[C@@H](CC(N)=O)C(N)=O)[C@@H](C)O)NC(=O)[C@@H](CC(N)=O)NC(=O)[C@H]([C@@H](C)O)NC(=O)[C@@H](CC(C)C)NC1=O	0.036
C[C@@H](NC(=O)[C@H](Cc1ccccc1)NC(=O)[C@@H](CCCNC(=N)N)NC(=O)[C@H](CCCN)NC(=O)[C@@H]1CNC(=O)c2cc3cc(c2)C(=O)N[C@H](Cc2ccc4ccccc4c2)C(=O)N[C@@H](CO)C(=O)N[C@@H](CC(N)=O)C(=O)N[C@H](Cc2ccc4ccccc4c2)C(=O)N[C@@H](c2ccccc2)C(=O)N[C@@H](CCCCNC3=O)C(=O)N[C@H](Cc2ccccc2)C(=O)N[C@@H](CCC(N)=O)C(=O)N[C@H](CCCNC(=N)N)C(=O)CN[C@@H](CCCNC(=N)N)C(=O)N1)C(N)=O	0.12
CC[C@H](C)[C@@H]1NC(=O)[C@H](CC(C)C)N(C)C(=O)C[C@@H](C(=O)N(C)C)N(C)C(=O)[C@H](C2CCCC2)N(C)C(=O)C2(CCCC2)NC(=O)[C@@H]2CCCN2C(=O)[C@H](CCc2cc(F)c(C(F)(F)F)c(F)c2)NC(=O)CN(C)C(=O)[C@H](Cc2ccc(C)cc2)N(CC)C(=O)[C@@H]2CCN2C(=O)[C@H](C)N(C)C1=O ([NMeL]I[NMeA][Aze][NEtPhe(4-Me)][Sar][hPhe(3,5-F2-4-CF3)]P[Ac5c][NMeGly(cPent)][NMeD]-NMe2; lactam N-11)	< 0.002
CC[C@H](C)[C@@H]1NC(=O)[C@H](C)N(C)C(=O)C[C@@H](C(=O)N2CCCC2)NC(=O)[C@H](C(C)C)N(C)C(=O)[C@H](Cc2ccccc2)N(C)C(=O)[C@H](Cc2c[nH]c3ccccc23)NC(=O)[C@H](Cc2cccc(Cl)c2)NC(=O)CN(C)C(=O)[C@H](Cc2ccc(Cl)cc2)N(C)C(=O)CN(C)C(=O)CN(C)C1=O ([NMeA]I[Sar][Sar][NMePhe(4-Cl)][Sar][Phe(3-Cl)]W[NMeF][NMeV]D-Pyrrolidide; lactam N-11)	0.054
CC[C@H](C)[C@@H]1NC(=O)[C@H](CC(C)C)N(C)C(=O)C[C@H](C)NC(=O)[C@H](C(C)C)N(C)C(=O)C2(CCCC2)NC(=O)[C@@H]2CCCN2C(=O)[C@H](CCc2ccc(C(F)(F)F)c(Cl)c2)NC(=O)CN(C)C(=O)[C@H](CC2CCCCC2)N(C)C(=O)CN(C)C1=O (cyclo([Ac5c][NMeV][β3hA][NMeL]I[Sar][NMeCha][Sar][hPhe(3-Cl-4-CF3)]P))	0.011
CC[C@H](C)[C@@H]1NC(=O)[C@H](CC(C)C)N(C)C(=O)C[C@H](C)NC(=O)[C@H](C(C)C)N(C)C(=O)C2(CCCC2)NC(=O)[C@@H]2CCCN2C(=O)[C@H](CCc2ccc(C(F)(F)F)c(Cl)c2)NC(=O)CN(C)C(=O)[C@H](CC2CCCCC2)N(C)C(=O)[C@@H]2CCN2C(=O)[C@H](C)N(C)C1=O (cyclo([Ac5c][NMeV][β3hA][NMeL]I[NMeA][Aze][NMeCha][Sar][hPhe(3-Cl-4-CF3)]P))	0.024

Target: T1, GTPase KRas (Homo sapiens, UniProt P01116)
Assay: Binding affinity to KRas (unknown origin) assessed as dissociation constant

T1 sequence (P01116 whole entry): as the sequence (P01116 whole entry) above

Compound	Kd [µM]
Cc1[nH]c2cc(Cl)cc(Cl)c2c1CCN	~1100

System: not listed separately
Assay: Inhibition of Biotinylated Avi-tagged KRas G12D mutant/GST tagged Raf1-RBD domain (1 to 149 residues) (unknown origin) incubated for 1 hr by TR-FRET assay
Set-up: species or system Homo sapiens

Compound	IC50 [µM]
CC(C)C[C@@H]1NC(=O)[C@H](CCC(=O)O)NC(=O)[C@H](CC(C)C)NC(=O)[C@@H]2CCCN2C(=O)[C@H](CCCNC(=N)N)NC(=O)[C@H](Cc2ccc(O)cc2)NC(=O)[C@@H]2CCCN2C(=O)[C@H](Cc2ccc(O)cc2)NC(=O)[C@H](CC(N)=O)NC(=O)[C@@H](Cc2ccc(O)cc2)NC(=O)CSC[C@@H](C(=O)NCC(N)=O)NC(=O)[C@H](Cc2ccc(O)cc2)NC(=O)[C@H](Cc2c[nH]c3ccccc23)NC1=O	15.3
CC[C@H](C)[C@@H]1NC(=O)[C@H](Cc2ccccc2)NC(=O)[C@H](CCCCN)NC(=O)[C@H](CCC(=O)O)NC(=O)[C@H]([C@@H](C)O)NC(=O)[C@H](C(C)C)NC(=O)[C@H]([C@@H](C)CC)NC(=O)[C@H]([C@@H](C)CC)NC(=O)[C@H](Cc2ccc(O)cc2)NC(=O)CSC[C@@H](C(=O)NCC(N)=O)NC(=O)[C@H](Cc2c[nH]cn2)NC(=O)[C@H](Cc2c[nH]cn2)NC(=O)[C@H](C(C)C)NC(=O)[C@H](Cc2c[nH]c3ccccc23)NC1=O	3

Target: T1, GTPase KRas
Assay: Inhibition of KRas (unknown origin)

Compound	IC50 [µM]
CC[C@H](C)[C@@H]1NC(=O)[C@@H]2CCCN2C(=O)CNC(=O)CCn2nncc2COCCCC(C(=O)N[C@@H](CC(C)C)C(N)=O)NC1=O (some centres not stated)	100
CC[C@H](C)[C@@H]1NC(=O)[C@@H]2CCCN2C(=O)[C@H](Cc2ccc(O)cc2)NC(=O)[C@@H](NC(=O)[C@H](CC(=O)O)NC(=O)[C@H](Cc2ccc(O)cc2)NC(=O)[C@H](Cc2ccccc2)NC(=O)[C@H](Cc2c[nH]cn2)NC(=O)[C@@H](N)Cc2ccccc2)CC#CC[C@@H](C(=O)N[C@@H](CC(C)C)C(=O)N[C@H](C(=O)N2CCC[C@H]2C(=O)N2CCC[C@H]2C(N)=O)[C@@H](C)CC)NC1=O	0.023
CC(C)C[C@H](NC(=O)C1CCCOCc2cnnn2CCC(=O)NCC(=O)N2CCCC[C@H]2C(=O)N[C@@H](Cc2cccc3ccccc23)C(=O)N1)C(N)=O (some centres not stated)	7.7
CC(C)C[C@H](NC(=O)C1CCCOCc2cnnn2CCC(=O)NCC(=O)N2CCC[C@H]2C(=O)N[C@@H](Cc2cccc3ccccc23)C(=O)N1)C(N)=O (some centres not stated)	7.1
